# According to US20140243302A1, “BRIDGED BICYCLIC COMPOUNDS FOR THE TREATMENT OF BACTERIAL INFECTIONS” (priority 2011, published 2014):
# Test system: Staphylococcus aureus Smith
# Assay: MIC assay, modified agar dilution (CLSI), S. aureus Smith
# Format: cell-based
# Details: Staphylococcus aureus, agar dilution, 35° C., 16-20 hr; lowest concentration that completely inhibited growth; read-out: S_aureus_Smith_WT_MIC
# How it was run: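 Strains were spotted at about 1×10^4 CFU onto compound-containing Mueller Hinton agar (two-fold series, 128-0.001 μg/mL), horse blood 5% added for pneumococcus and enterococcus. MIC read after 16-20 hr at 35 °C, following a modified CLSI agar dilution method.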
row,MIC [µg/mL],SMILES
1,0.125,"COc1ccc2ncc(F)c(CCC34CCC(NCc5ccc6c(c5)OCCN6C)(CC3)CO4)c2n1 [Example 66, 1-(2-(3-Fluoro-6-methoxy-1,5-naphthyridin-4-yl)ethyl)-N-((4-methyl-3,4-dihydro-2H-benzo[b][1,4]oxazin-7-yl)methyl)-2-oxabicyclo[2.2.2]octan-4-amine]"
2,0.031,"COc1ccc2ncc(F)c(CCC34CCC(NCc5cc(Cl)c6c(c5)OCCO6)(CC3)CO4)c2n1 [Example 67, N-((8-Chloro-2,3-dihydrobenzo[b][1,4]dioxin-6-yl)methyl)-1-(2-(3-fluoro-6-methoxy-1,5-naphthyridin-4-yl)ethyl)-2-oxabicyclo[2.2.2]octan-4-amine]"
3,0.016,"COc1ccc2ncc(F)c(CCC34CCC(NC(=O)c5ccc(C)c(F)c5)(CC3)CO4)c2n1 [Example 68, 3-Fluoro-N-(1-(2-(3-fluoro-6-methoxy-1,5-naphthyridin-4-yl)ethyl)-2-oxabicyclo[2.2.2]octan-4-yl)-4-methylbenzamide]"
4,0.008,"COc1ccc2ncc(F)c(CCC34CCC(NCc5ccc6c(c5)OCCO6)(CC3)CO4)c2n1 [Example 69, N-((2,3-Dihydrobenzo[b][1,4]dioxin-6-yl)methyl)-1-(2-(3-fluoro-6-methoxy-1,5-naphthyridin-4-yl)ethyl)-2-oxabicyclo[2.2.2]octan-4-amine]"
5,2,"COc1ccc2ncc(F)c(CCC34CCC(NCC5CCCCC5)(CC3)CO4)c2n1 [Example 70, N-(Cyclohexylmethyl)-1-(2-(3-fluoro-6-methoxy-1,5-naphthyridin-4-yl)ethyl)-2-oxabicyclo[2.2.2]octan-4-amine]"
6,1,"COc1ccc2ncc(F)c(CCC34CCC(NS(=O)(=O)c5ccc(C)c(F)c5)(CC3)CO4)c2n1 [Example 71, 3-Fluoro-N-(1-(2-(3-fluoro-6-methoxy-1,5-naphthyridin-4-yl)ethyl)-2-oxabicyclo[2.2.2]octan-4-yl)-4-methylbenzenesulfonamide]"
7,0.125,"COc1ccc2ncc(F)c(CCC34CCC(NCc5cc(Cl)c6c(c5)OCO6)(CC3)CO4)c2n1 [Example 72, N-((7-Chlorobenzo[d][1,3]dioxol-5-yl)methyl)-1-(2-(3-fluoro-6-methoxy-1,5-naphthyridin-4-yl)ethyl)-2-oxabicyclo[2.2.2]octan-4-amine]"
8,0.016,"COc1ccc2ncc(F)c(CCC34CCC(NCc5cc(-c6cccs6)on5)(CC3)CO4)c2n1 [Example 73, 1-(2-(3-Fluoro-6-methoxy-1,5-naphthyridin-4-yl)ethyl)-N-((5-(thiophen-2-yl)isoxazol-3-yl)methyl)-2-oxabicyclo[2.2.2]octan-4-amine]"
9,4,"COc1ccc2ncc(F)c(CCC34CCC(NCc5csc(-c6ccccn6)n5)(CC3)CO4)c2n1 [Example 75, 1-(2-(3-Fluoro-6-methoxy-1,5-naphthyridin-4-yl)ethyl)-N-((2-(pyridin-2-yl)thiazol-4-yl)methyl)-2-oxabicyclo[2.2.2]octan-4-amine]"
10,0.125,"COc1ccc2ncc(F)c(CCC34CCC(NCc5cn(-c6ncccn6)cn5)(CC3)CO4)c2n1 [Example 76, 1-(2-(3-Fluoro-6-methoxy-1,5-naphthyridin-4-yl)ethyl)-N-((1-(pyrimidin-2-yl)-1H-imidazol-4-yl)methyl)-2-oxabicyclo[2.2.2]octan-4-amine]"
11,0.125,"COc1ccc2ncc(F)c(CCC34CCC(NCc5cc6cccnc6s5)(CC3)CO4)c2n1 [Example 77, 1-(2-(3-Fluoro-6-methoxy-1,5-naphthyridin-4-yl)ethyl)-N-(thieno[2,3-b]pyridin-2-ylmethyl)-2-oxabicyclo[2.2.2]octan-4-amine]"
12,0.25,"COc1ccc2ncc(F)c(CCC34CCC(NCc5cnc(N6CCCC6)nc5)(CC3)CO4)c2n1 [Example 78, 1-(2-(3-Fluoro-6-methoxy-1,5-naphthyridin-4-yl)ethyl)-N-((2-(pyrrolidin-1-yl)pyrimidin-5-yl)methyl)-2-oxabicyclo[2.2.2]octan-4-amine]"
13,0.5,"COc1ccc2ncc(F)c(CCC34CCC(NCc5cc6ccccc6n(C)c5=O)(CC3)CO4)c2n1 [Example 79, 3-((1-(2-(3-Fluoro-6-methoxy-1,5-naphthyridin-4-yl)ethyl)-2-oxabicyclo[2.2.2]octan-4-ylamino)methyl)-1-methylquinolin-2(1H)-one]"
14,0.063,"COc1ccc2ncc(F)c(CCC34CCC(NCc5ccc6cc[nH]c6n5)(CC3)CO4)c2n1 [Example 80, N-((1H-Pyrrolo[2,3-b]pyridin-6-yl)methyl)-1-(2-(3-fluoro-6-methoxy-1,5-naphthyridin-4-yl)ethyl)-2-oxabicyclo[2.2.2]octan-4-amine]"
15,0.5,"COc1ccc2ncc(F)c(CCC34CCC(NCc5cnc6[nH]ccc6c5)(CC3)CO4)c2n1 [Example 81, N-((1H-Pyrrolo[2,3-b]pyridin-5-yl)methyl)-1-(2-(3-fluoro-6-methoxy-1,5-naphthyridin-4-yl)ethyl)-2-oxabicyclo[2.2.2]octan-4-amine]"
16,0.25,"COc1ccc2ncc(F)c(CCC34CCC(NCc5ccc(N6CCCC6)nc5)(CC3)CO4)c2n1 [Example 82, 1-(2-(3-Fluoro-6-methoxy-1,5-naphthyridin-4-yl)ethyl)-N-((6-(pyrrolidin-1-yl)pyridin-3-yl)methyl)-2-oxabicyclo[2.2.2]octan-4-amine]"
17,1,"COc1ccc2ncc(F)c(CCC34CCC(NCc5ccc6ccc(=O)[nH]c6n5)(CC3)CO4)c2n1 [Example 83, 7-((1-(2-(3-Fluoro-6-methoxy-1,5-naphthyridin-4-yl)ethyl)-2-oxabicyclo[2.2.2]octan-4-ylamino)methyl)-1,8-naphthyridin-2(1H)-one]"
18,0.25,"COc1ccc2ncc(F)c(CCC34CCC(NCc5ccc(N6CCCCC6)nc5)(CC3)CO4)c2n1 [Example 84, 1-(2-(3-Fluoro-6-methoxy-1,5-naphthyridin-4-yl)ethyl)-N-((6-(piperidin-1-yl)pyridin-3-yl)methyl)-2-oxabicyclo[2.2.2]octan-4-amine]"
19,0.125,"COc1ccc2ncc(F)c(CCC34CCC(NCc5cnc(N(C)C)nc5)(CC3)CO4)c2n1 [Example 85, 5-((1-(2-(3-Fluoro-6-methoxy-1,5-naphthyridin-4-yl)ethyl)-2-oxabicyclo[2.2.2]octan-4-ylamino)methyl)-N,N-dimethylpyrimidin-2-amine]"
20,16,"CCOC(=O)c1csc(CNC23CCC(CCc4c(F)cnc5ccc(OC)nc45)(CC2)OC3)n1 [Example 86, Ethyl 2-(((1-(2-(3-Fluoro-6-methoxy-1,5-naphthyridin-4-yl)ethyl)-2-oxabicyclo[2.2.2]octan-4-yl)amino)methyl)thiazole-4-carboxylate]"
21,0.063,"COc1ccc2ncc(F)c(CCC34CCC(NCc5cc6c(cc5F)OCO6)(CC3)CO4)c2n1.Cl [Example 87, 1-(2-(3-Fluoro-6-methoxy-1,5-naphthyridin-4-yl)ethyl)-N-((6-fluorobenzo[d][1,3]dioxol-5-yl)methyl)-2-oxabicyclo[2.2.2]octan-4-amine Hydrochloride]"
22,0.008,"COc1ccc2ncc(F)c(CCC34CCC(NCc5nc6c(cc5Cl)OCC(=O)N6)(CC3)CO4)c2n1.Cl [Example 88, 7-chloro-6-(((1-(2-(3-fluoro-6-methoxy-1,5-naphthyridin-4-yl)ethyl)-2-oxabicyclo[2.2.2]octan-4-yl)amino)methyl)-2H-pyrido[3,2-b][1,4]oxazin-3(4H)-one]"
23,0.125,"COc1ccc2ncc(F)c(CCC34CCC(NCc5cnc6c(c5)OCCN6C)(CC3)CO4)c2n1 [Example 89, 1-(2-(3-Fluoro-6-methoxy-1,5-naphthyridin-4-yl)ethyl)-N-((4-methyl-3,4-dihydro-2H-pyrido[3,2-b][1,4]oxazin-7-yl)methyl)-2-oxabicyclo[2.2.2]octan-4-amine]"
24,0.125,"COc1ccc2ncc(F)c(CCC34CCC(NCc5ccc6c(c5)OC(F)(F)O6)(CC3)CO4)c2n1 [Example 90, N-((2,2-Difluorobenzo[d][1,3]dioxol-5-yl)methyl)-1-(2-(3-fluoro-6-methoxy-1,5-naphthyridin-4-yl)ethyl)-2-oxabicyclo[2.2.2]octan-4-amine]"
25,16,"COc1ccc2ncc(F)c(CCC34CCC(NCc5ccc6c(c5)n(C)c(=O)n6C)(CC3)CO4)c2n1 [Example 91, 5-((1-(2-(3-Fluoro-6-methoxy-1,5-naphthyridin-4-yl)ethyl)-2-oxabicyclo[2.2.2]octan-4-ylamino)methyl)-1,3-dimethyl-1H-benzo[d]imidazol-2(3H)-one]"
26,0.125,"COc1ccc2ncc(F)c(CCC34CCC(NCc5cnn(CC(F)F)c5)(CC3)CO4)c2n1 [Example 92, N-((1-(2,2-Difluoroethyl)-1H-pyrazol-4-yl)methyl)-1-(2-(3-fluoro-6-methoxy-1,5-naphthyridin-4-yl)ethyl)-2-oxabicyclo[2.2.2]octan-4-amine]"
27,16,"COc1ccc2ncc(F)c(CCC34CCC(NCc5nn(C)cc5Cl)(CC3)CO4)c2n1 [Example 93, N-((4-Chloro-1-methyl-1H-pyrazol-3-yl)methyl)-1-(2-(3-fluoro-6-methoxy-1,5-naphthyridin-4-yl)ethyl)-2-oxabicyclo[2.2.2]octan-4-amine]"
28,> 16,"COc1ccc2ncc(F)c(CCC34CCC(NCc5cn(C)c(=O)n(C)c5=O)(CC3)CO4)c2n1 [Example 94, 5-((1-(2-(3-Fluoro-6-methoxy-1,5-naphthyridin-4-yl)ethyl)-2-oxabicyclo[2.2.2]octan-4-ylamino)methyl)-1,3-dimethylpyrimidine-2,4(1H,3H)-dione]"
29,0.5,"COc1ccc2ncc(F)c(CCC34CCC(NCc5ccc(OC(F)F)c(OC)c5)(CC3)CO4)c2n1 [Example 95, N-(4-(Difluoromethoxy)-3-methoxybenzyl)-1-(2-(3-fluoro-6-methoxy-1,5-naphthyridin-4-yl)ethyl)-2-oxabicyclo[2.2.2]octan-4-amine]"
30,0.031,"COc1ccc2ncc(F)c(CCC34CCC(NCc5cc6c(cn5)OCC(=O)N6)(CC3)CO4)c2n1 [Example 96, 7-(((1-(2-(3-Fluoro-6-methoxy-1,5-naphthyridin-4-yl)ethyl)-2-oxabicyclo[2.2.2]octan-4-yl)amino)methyl)-1H-pyrido[3,4-b][1,4]oxazin-2(3H)-one]"
